Test systems include SNB-19 CNS; ACHN renal; OVCAR-5 ovarian; T-47D breast; HL-60(TB) leukemia; LOX IMVI melanoma; HCT-15 colon; UACC-62 melanoma; M14 melanoma.
Common to all, as to experiment: NCI anticancer screen, dose series, 48 h

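Dose response: 5 concentrations. Exposure: 48 h. Format: 96-well plates. Endpoint: linear interpolation; highest concentration if not reached. At the TGI there is no net growth.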 A value given as a limit tells only on which side of the number the result lay.

Take `O=S(=O)(c1cc(Cl)ccc1Cl)N1CCN(c2cccc(Cl)c2)CC1`: the TGI in the assay on SNB-19 CNS, in the assay with ACHN renal, in the assay on OVCAR-5 ovarian, in the assay with T-47D breast, in the assay on HL-60(TB) leukemia and with LOX IMVI melanoma was greater than 100 µM throughout. Also, in the assay on HCT-15 colon, the TGI is greater than 100 µM.

Consider `CC(C(=O)n1ccnc1)N1c2ccccc2Sc2ccccc21` (stereo not drawn), for which the TGI in the assay on SNB-19 CNS, in the assay on UACC-62 melanoma, in the assay on ACHN renal, in the assay with OVCAR-5 ovarian, with T-47D breast and with HL-60(TB) leukemia was greater than 100 µM in each case. Also, the TGI with LOX IMVI melanoma, with M14 melanoma and in the assay on HCT-15 colon was greater than 100 µM in each case.

With `CS(=O)(=O)O[C@H]1[C@H](O)c2ccccc2[C@@H]1N=[N+]=[N-]`, the TGI in the assay with SNB-19 CNS, in the assay with UACC-62 melanoma, in the assay on ACHN renal, in the assay with OVCAR-5 ovarian, in the assay with HL-60(TB) leukemia and in the assay with LOX IMVI melanoma was greater than 100 µM in each case. Also, the TGI in the assay with M14 melanoma and in the assay with HCT-15 colon was greater than 100 µM throughout.

On to `CC(=O)Nc1cc2nc3n(c2cc1C)CCC3OC(C)=O` (stereo not drawn), for which the TGI in the assay with SNB-19 CNS, in the assay on UACC-62 melanoma, in the assay with ACHN renal, in the assay on OVCAR-5 ovarian, in the assay on T-47D breast and in the assay on HL-60(TB) leukemia was greater than 100 µM each time. In addition, the TGI with LOX IMVI melanoma, in the assay on M14 melanoma and in the assay with HCT-15 colon was greater than 100 µM in each case.

As for `COc1cc(C2OC[C@@H]3C(=O)OC[C@H]23)cc(O)c1OC` (stereo partly drawn), the TGI in the assay with SNB-19 CNS, in the assay on UACC-62 melanoma, in the assay with ACHN renal, with OVCAR-5 ovarian, in the assay with T-47D breast and with HL-60(TB) leukemia was greater than 100 µM each time. In addition, the TGI in the assay with LOX IMVI melanoma, in the assay on M14 melanoma and in the assay with HCT-15 colon was greater than 100 µM in each case.

Regarding `CN1CC2=C(NC(=S)NC2c2ccccc2Cl)/C(=C/c2ccccc2Cl)C1` (stereo not drawn), the TGI in the assay on SNB-19 CNS is greater than 100 µM; in the assay on UACC-62 melanoma, greater than 100 µM; with ACHN renal, greater than 100 µM; in the assay on OVCAR-5 ovarian, greater than 100 µM; with T-47D breast, greater than 100 µM; in the assay with HL-60(TB) leukemia, 62.6 µM. Moreover, the TGI with LOX IMVI melanoma, in the assay on M14 melanoma and in the assay with HCT-15 colon was greater than 100 µM throughout.

With `COC(=O)[C@]12CSC[C@H]1C[C@H](c1cccc3ccccc13)N2`, the TGI in the assay with SNB-19 CNS, in the assay on UACC-62 melanoma, in the assay on ACHN renal, with OVCAR-5 ovarian, in the assay on T-47D breast and in the assay with LOX IMVI melanoma was greater than 100 µM each time. The TGI with M14 melanoma and in the assay with HCT-15 colon was greater than 100 µM throughout.

In the case of `CN(C)CC1CCC/C(=C\c2ccccc2)C1=O` (stereo not drawn), the TGI is 30.5 µM with SNB-19 CNS; 20.2 µM with UACC-62 melanoma; 12.6 µM in the assay with ACHN renal; 29 µM in the assay on OVCAR-5 ovarian; 4.35 µM in the assay with T-47D breast; greater than 100 µM in the assay with HL-60(TB) leukemia. The TGI is 3.2 µM in the assay on LOX IMVI melanoma and 4.67 µM in the assay on HCT-15 colon.

As for `CCOc1cccc(-c2cc(=O)c3cc4c(cc3[nH]2)OCO4)c1`, the TGI with SNB-19 CNS is greater than 27.1 µM; with UACC-62 melanoma, 21.1 µM; in the assay on ACHN renal, greater than 62.3 µM; with OVCAR-5 ovarian, greater than 100 µM; in the assay on T-47D breast it was greater than 100 µM; in the assay on HL-60(TB) leukemia, greater than 100 µM. The TGI was greater than 100 µM in the assay on LOX IMVI melanoma, greater than 37.6 µM in the assay on M14 melanoma and 0.52 µM with HCT-15 colon.

With `S=C1CC(c2ccccc2)Sc2cc(Cl)ccc2N1` (stereo not drawn), the TGI in the assay with SNB-19 CNS is 38.7 µM; with UACC-62 melanoma, 44.9 µM; with ACHN renal it was 27 µM; in the assay with OVCAR-5 ovarian, greater than 100 µM; in the assay on T-47D breast, greater than 100 µM; in the assay on LOX IMVI melanoma it was greater than 100 µM. Further, the TGI in the assay on M14 melanoma and in the assay with HCT-15 colon was greater than 100 µM each time.

`CC(=O)Oc1ccc2cc(-c3ccc(OC(C)=O)c(OC(C)=O)c3)c(=O)oc2c1`: the TGI in the assay on SNB-19 CNS was greater than 100 µM; in the assay on ACHN renal, greater than 100 µM; in the assay with OVCAR-5 ovarian it was greater than 100 µM; in the assay on T-47D breast, 62.1 µM; with HL-60(TB) leukemia, greater than 100 µM; in the assay with LOX IMVI melanoma, greater than 100 µM. Also, the TGI in the assay on M14 melanoma and in the assay on HCT-15 colon was greater than 100 µM each time.

With `Cc1cc(S(=O)(=O)NC(=NCCc2ccccc2)NN)c(S)cc1Cl`, the TGI in the assay on SNB-19 CNS was 36.7 µM; in the assay on UACC-62 melanoma, 40 µM; in the assay with OVCAR-5 ovarian it was 36.8 µM; in the assay on T-47D breast it was 63 µM; in the assay on HL-60(TB) leukemia, greater than 100 µM; with LOX IMVI melanoma, greater than 100 µM. For the same compound, the TGI in the assay on M14 melanoma stood at 91.5 µM; in the assay with HCT-15 colon, 37.9 µM.

`C=CCCCC1(C)CCNC1=S` (stereo not drawn): the TGI in the assay on SNB-19 CNS, in the assay with UACC-62 melanoma, in the assay on ACHN renal, with OVCAR-5 ovarian, in the assay on T-47D breast and in the assay on M14 melanoma was greater than 100 µM in each case. The TGI with HCT-15 colon is greater than 100 µM.

As to `Cc1cn(C2CCN(CC3COC(C)(C)O3)O2)c(=O)[nH]c1=O` (stereo not drawn), the TGI with UACC-62 melanoma, with ACHN renal, in the assay on OVCAR-5 ovarian, with T-47D breast, with HL-60(TB) leukemia and in the assay on LOX IMVI melanoma was greater than 100 µM throughout. Besides, the TGI in the assay with M14 melanoma and in the assay on HCT-15 colon was greater than 100 µM throughout.

As for `CCNc1nnc(-c2ccccc2Nc2ccccc2-c2nnc(NCC)s2)s1`, the TGI is greater than 100 µM in the assay on SNB-19 CNS; 35.3 µM with UACC-62 melanoma; 31 µM in the assay with ACHN renal; 48.5 µM with OVCAR-5 ovarian; greater than 84.8 µM in the assay with T-47D breast; 38.5 µM with LOX IMVI melanoma. For the same compound, the TGI in the assay with M14 melanoma is 40 µM; in the assay with HCT-15 colon it was greater than 45.2 µM.

The values above are taken from PubChem BioAssay (NCI).
